Assay results published in patent US9986723B2, “Screen and use of therapeutics for pancreatic ductal adenocarcinoma” (The Board of Regents of the University of Texas System, priority 2014, dated 2018).

Key:
[1] = tested on: PanIN and PDA tumor growth in KIC mice; experiment: Two week in vivo assay in Rgs16::GFP;KIC mice, Rgs16::GFP intensity at P29; parameters: species or system mouse; conditions: for effect on GFP levels when combined with GA: drug dissolved in 30% Cyclodextrin
From the text: Fluorescent microscopy and GFP quantification. Pancreatic expression of Rgs16::GFP in GFP-PDA mice was quantified using a Zeiss Lumar microscope. Images were captured using a single-channel camera (Hamamatsu) in 1344×1024 resolution with 1 sec exposure under 48× magnification with 1×1 binning, analog gain=10, and analog offset=2 settings. Pancreatic fields representing the tumor burden (3-4 fields for P15 pups and 5 or more for pups from P23 onwards) of the pancreas were imaged covering up to 50% of the organ surface area. All images were saved in gray-scale 16-bit tiff format. Images were quantified using NIH ImageJ software with background subtraction with a radius of 50 pixels. A variable and tight threshold was set to eliminate residual background. Intensities of all particles with size ≥5 pixels were summed to obtain the total light intensity per image.
Drug dosages. GFP-PDA mice were injected intraperitoneally with gemcitabine (Eli Lilly; Indianapolis, Ind., USA) (12.5 mg/kg/day given 3 days/week, dissolved in PBS), Abraxane (Cellgene; Summit, N.J., USA) (5 mg/kg/day given 2 days/week, diluted in 2% saline solution), BGB324 (BerGenBio, Bergen, Norway) (5 mg/kg/day given 5 days/week, dissolved in a mix of DMSO:ethanol:Kolliphor EL:water with 4:4:8:84 v/v ratio), and warfarin (0.2 mg/kg/day given 5 days/week, dissolved in PBS) according to injection schedules specified below. These doses were validated in prior mouse studies (Dineen et al., 2010; Kutluk Cenik et al., 2013; Ostapoff et al., 2013; Aguilera et al., 2014; Ostapoff et al., 2014). […] To verify tumor progression remains constant over the duration of these experiments, assays of untreated mice were interspersed with drug-treated cohorts, and warfarin-treated pups were the final cohort the inventors tested. Gemcitabine, Abraxane and warfarin were purchased from the UT Southwestern clinical pharmacy; BGB324 was a gift from BerGenBio.
Statistical analysis of GFP expression. GFP values were converted to log10 scale prior to statistical analysis. Graphs and their statistical comparisons were done using Graphpad Prism software with unpaired and two-tailed Student's t test. Significance between groups was indicated as ns (not significant); *p<0.05; **p<0.01; ***p<0.001; ****p<0.0001. Error bars in all the graphs are standard error mean (SEM). See FIGS. 7-8 for additional statistical analysis.
The therapeutic screening strategy was to treat KIC pups between P15-P28 (when PanIN and PDA are in rapid expansion) with anticancer drugs, sacrifice mice at P29, and capture Rgs16::GFP intensity with a dissection fluorescence microscope. Images of the five brightest non-overlapping fields of Rgs16::GFP expression were then collected, representing the regions of greatest tumor burden (FIGS. 17A-C).

primary PDA cells = experiment: Rgs16::GFP PDA primary cell culture, live cell counts after 24 hr drug treatment; type: cell-based, mouse; conditions: for effect on cell viability and proliferation: 24 hr, gemcitabine 10 μM, BGB324 or warfarin 1 or 10 μM; for recovery of cell growth after drug removal: passages without drug after 24 hr treatment
Description: Cell proliferation counts of primary PDA culture after 24 hr treatment with (FIG. 20A) gemcitabine (purple round); (FIG. 20B) BGB324 (green round); (FIG. 20C) warfarin (blue round); or (FIG. 20D) BGB324 with warfarin (green or blue round) at the indicated concentrations. PDA primary cells were plated at equal density (black open circle) at the start. Next day, cells were treated with drugs (D, red font) for 24 hr (red line). Approximate cell number at the start of drug treatment was obtained from another plate with equal density (red open circle). At the end of treatment, cells in each group were counted and subsequent passages started with cells plated at equal density (grey asterisk). Drug treated groups were allowed to grow without drug selection thereafter. Control cells (Ctrl) on separate plates were grown without drug and counted at the end of each passage (black open circle). PDA live cell numbers were obtained via counts using a hemocytometer after 2% Trypan blue staining to distinguish between living and dead cells under an inverted microscope with 10× objective. Statistical significances are based on comparison of drug-treated cell counts to Ctrl. […] Statistical analyses were obtained by comparing counts of drug-treated cells to Ctrl via unpaired and two-tailed Student's t-test. *, p<0.05; **, p<0.01; ***, p<0.001; ****, p<0.0001. Asterisks match the color of the comparison group.
Rgs16::GFP PDA primary cell culture. Primary Rgs16::GFP PDA cells were harvested from 6-week-old KIC mice. Cells were grown in 25 mM Glucose DMEM (HyClone) with 10% FBS (Serum Source International), penicillin and streptomycin (Life Technologies) on rat tail collagen typel (BD Biosciences) coated plates (0.5 μg/cm^2) in a humidified incubator at 37° C. and 5% CO2. Cells reaching confluency were washed twice with PBS (HyClone) and lifted with 0.05% Trypsin-EDTA (HyClone) treatment up to 10 min in the incubator. For drug tests in FIGS. 20A-D, primary PDA cells were incubated with gemcitabine (10 μM dissolved in PBS), warfarin (1 μM or 10 μM dissolved in water), BGB324 (1 μM or 10 μM dissolved in DMSO) or warfarin and BGB324 together for 24 hrs in 37° C. incubator. PDA live cell numbers were obtained via counts using a hemocytometer following 2% trypan blue staining to distinguish dead cells under an inverted microscope.

Axl = target: T1, Axl (Homo sapiens, UniProt P30530); experiment: Phosphorylated Axl in Panc-1 cells (western blot, immunofluorescence); type: cell-based; conditions: overnight, 1% serum, 2 μM
T1 construct: Lysates were probed for total Axl (tAxl) and phosphorylated Axl (pAxl); endogenous in cells; host or cells: Panc-1
T1 sequence (P30530 26-894): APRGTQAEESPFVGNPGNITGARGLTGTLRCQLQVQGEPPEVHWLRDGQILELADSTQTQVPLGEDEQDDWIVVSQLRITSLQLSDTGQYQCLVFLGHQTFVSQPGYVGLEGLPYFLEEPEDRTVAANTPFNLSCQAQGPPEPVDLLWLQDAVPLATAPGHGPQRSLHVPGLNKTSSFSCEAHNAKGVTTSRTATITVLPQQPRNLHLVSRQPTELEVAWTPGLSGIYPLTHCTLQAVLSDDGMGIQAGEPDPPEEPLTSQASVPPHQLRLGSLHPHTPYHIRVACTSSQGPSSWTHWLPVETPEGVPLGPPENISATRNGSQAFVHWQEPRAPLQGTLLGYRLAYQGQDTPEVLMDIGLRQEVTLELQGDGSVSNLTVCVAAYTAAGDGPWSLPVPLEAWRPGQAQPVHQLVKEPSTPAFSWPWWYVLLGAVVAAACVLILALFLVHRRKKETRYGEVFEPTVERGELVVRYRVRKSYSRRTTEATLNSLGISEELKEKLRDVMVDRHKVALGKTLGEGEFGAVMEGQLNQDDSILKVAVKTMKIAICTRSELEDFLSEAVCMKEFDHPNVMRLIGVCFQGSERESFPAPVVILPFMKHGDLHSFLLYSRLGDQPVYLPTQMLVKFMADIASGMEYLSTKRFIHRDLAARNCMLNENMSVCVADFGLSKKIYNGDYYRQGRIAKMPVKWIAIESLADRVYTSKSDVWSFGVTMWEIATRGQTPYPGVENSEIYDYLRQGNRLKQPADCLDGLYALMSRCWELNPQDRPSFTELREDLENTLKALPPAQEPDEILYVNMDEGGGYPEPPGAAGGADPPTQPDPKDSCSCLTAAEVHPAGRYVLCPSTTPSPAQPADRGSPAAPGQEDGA
Description: (FIG. 24A) HEK293 cells engineered to stably express recombinant Gas6 were grown in the presence of Vitamin K or Vitamin K+warfarin. Gas6 levels and γ-carboxylation were assayed by immunoblotting conditioned media. Conditioned media from untransfected HEK293 cells was used as a negative control. (FIG. 24B) Panc1 cells were grown overnight in media with 1% serum with no additions (NT), warfarin (2 μM) or BGB324 (2 μM). Lysates were probed for total Axl (tAxl) and phosphorylated Axl (pAxl). (FIG. 24C) Panc1 cells were grown in the presence of control media, Vitamin K, warfarin or warfarin+Vitamin K. The level of phosphorylated Axl (pAXL, red) was determined by immunofluorescence. (FIG. 24D) Panc1 cells were grown overnight in media with 1% serum with no additions (control), warfarin (1 μM), Gas6 (1.3 nM) or Gas6+warfarin. Lysates were probed for phosphorylated Akt (pAkt) and actin. (FIG. 24E) Lysates from Panc1 tumors harvested from mice treated with control or warfarin were probed for expression of tAxl, pAxl, actin, pAKT, tAKT, and cleaved Parp. (FIG. 24F) The effect of warfarin on cell migration was assessed by a ‘scratch’ assay. Monolayers of the indicted cells were wounded with a pipet tip. The cells were incubated in media containing 2% serum+/−warfarin (2 μM) or media containing 2% serum+Gas6 (1.3 nM)+/−warfarin.

Pan02 = experiment: MTS cell growth assay, gemcitabine +/- warfarin; type: cell-based, murine; conditions: Mus musculus, Pan02, 120 h, gemcitabine alone, 5 days, read-out: Gemcitabine (nmol/L) median IC50
Description: (§1) Cytotoxicity and augmentation of chemotherapy response was measured by MTS assays conducted in 96-well plates; cells were plated on day 0 and drug was added on day 1 in 4-fold dilutions. Maximum concentration of 2,000 nmol/L for gemcitabine was used with or without the addition of a constant concentration of 2 μM warfarin or 1.1 μM 10C9. Relative cell number was determined by adding MTS (Promega; final concentration […]), incubating for 1 to 3 hours at 37° C., and reading absorbance. Drug sensitivity curves and IC50s were calculated using in-house software.

ASPC = experiment: MTS cell growth assay, gemcitabine +/- warfarin; type: cell-based, human; conditions: Homo sapiens, 120 h; gemcitabine alone; 5 days, MTS; read-out: Gemcitabine (nmol/L) median IC50
Description: as §1

Panc1 = experiment: MTS cell growth assay, gemcitabine +/- warfarin; type: cell-based, human; conditions: Homo sapiens, PANC-1, 120 h; gemcitabine alone; 5 days, MTS; read-out: Gemcitabine (nmol/L) median IC50
Description: as §1

Capan = experiment: MTS cell growth assay, gemcitabine +/- warfarin; type: cell-based; conditions: Homo sapiens, 120 h, gemcitabine alone, 5 days, read-out: Gemcitabine (nmol/L) median IC50
Description: as §1

MiaPaca = experiment: MTS cell growth assay, gemcitabine +/- warfarin; type: cell-based; conditions: Homo sapiens, MIA PaCa-2, 120 h, gemcitabine alone, 5 days, read-out: Gemcitabine (nmol/L) median IC50
Description: as §1

MiaShAxl = experiment: MTS cell growth assay, gemcitabine +/- warfarin; type: cell-based; conditions: Homo sapiens, 120 h, gemcitabine alone, 5 days, read-out: Gemcitabine (nmol/L) median IC50
Description: as §1

[2] = Body weight of KIC weanling mice under chemotherapy; type: in vivo, mouse; conditions: P29
From the text: FIG. 19. […] Comparison of body weight of female (round) and male (square) non-KIC control (Ctrl, grey), and KIC untreated (Unt, black) or chemotherapy-treated KIC groups are shown. […] Significances are based on comparison of any KIC group to Ctrl via unpaired and two-tailed Student's t-test. ****, p<0.0001.

advanced PDA = conditions: patients; cited from earlier work
advanced ovarian cancer = conditions: gemcitabine with carboplatin; cited from earlier work
[3] = target: vitamin K epoxide reductase (Homo sapiens, UniProt Q9BQB6); conditions: cited from earlier work
Sequence of vitamin K epoxide reductase (Q9BQB6 whole entry): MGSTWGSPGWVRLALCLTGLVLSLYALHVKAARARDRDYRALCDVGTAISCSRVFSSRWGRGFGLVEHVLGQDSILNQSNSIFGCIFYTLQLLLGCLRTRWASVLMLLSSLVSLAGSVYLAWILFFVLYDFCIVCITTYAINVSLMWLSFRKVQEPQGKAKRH

Nc1nc(Nc2ccc3c(c2)CC[C@@H](N2CCCC2)CC3)nn1-c1cc2c(nn1)-c1ccccc1CCC2 [BGB324]
effect on GFP levels when combined with GA [1]: did not exert an effect
effect on cell viability and proliferation (primary PDA cells): cytostatic
recovery of cell growth after drug removal (primary PDA cells): within four passages
phosphorylation of Axl (pAxl) (Axl): inhibited phosphorylation of Axl

Cc1c(CN2CCN(C(=O)[C@H](C)O)CC2)sc2c(N3CCOCC3)nc(-c3cnc(N)nc3)nc12 [GDC980]
effect on GFP levels when combined with GA [1]: did not exert an effect

Nc1ccn([C@@H]2O[C@H](CO)[C@@H](O)C2(F)F)c(=O)n1 [Gemcitabine]
IC50 (Pan02): 76.5 nmol/L
IC50 (ASPC): 16 nmol/L
IC50 (Panc1): 17.1 nmol/L
IC50 (Capan): 6.87 nmol/L
IC50 (MiaPaca): 14.5 nmol/L
IC50 (MiaShAxl): 21 nmol/L
effect on PanIN lesions and PDA tumor growth (Rgs16::GFP expression) ([1]; KIC mice treated P15-P28, i.p., sacrificed P29): reduction of GFP expression
effect on cell viability and proliferation (primary PDA cells): killed cells
recovery of cell growth after drug removal (primary PDA cells): did not recover
body weight gain / growth of weanling mice [2]: retards body weight gain
survival (advanced PDA): 6.7 months
neutropenia (most commonly reported adverse effect) (advanced ovarian cancer): 90 % of patients

CC(=O)C[C@@H](c1ccccc1)c1c(O)c2ccccc2oc1=O [S-warfarin]
potency in producing an anticoagulant response relative to the R-isomer [3]: 2-5 times
